# Experimental data from US20240116985A1, “STAPLED PEPTIDES AND METHODS THEREOF” (priority 2020, published 2024).
# Assays:
# [1] = target: T1, full-length beta-Catenin (Uniprot ID P35222) (Homo sapiens, UniProt P35222); assay: Fluorescence polarization IC50 (beta-catenin / 5FAM-TCF4 10-53 competition); type: binding; conditions: fluorescence polarization; read-out: beta-Catenin FP IC50
# T1 construct: 10 nM full-length beta-Catenin (Uniprot ID P35222)
# T1 sequence (P35222 1-781): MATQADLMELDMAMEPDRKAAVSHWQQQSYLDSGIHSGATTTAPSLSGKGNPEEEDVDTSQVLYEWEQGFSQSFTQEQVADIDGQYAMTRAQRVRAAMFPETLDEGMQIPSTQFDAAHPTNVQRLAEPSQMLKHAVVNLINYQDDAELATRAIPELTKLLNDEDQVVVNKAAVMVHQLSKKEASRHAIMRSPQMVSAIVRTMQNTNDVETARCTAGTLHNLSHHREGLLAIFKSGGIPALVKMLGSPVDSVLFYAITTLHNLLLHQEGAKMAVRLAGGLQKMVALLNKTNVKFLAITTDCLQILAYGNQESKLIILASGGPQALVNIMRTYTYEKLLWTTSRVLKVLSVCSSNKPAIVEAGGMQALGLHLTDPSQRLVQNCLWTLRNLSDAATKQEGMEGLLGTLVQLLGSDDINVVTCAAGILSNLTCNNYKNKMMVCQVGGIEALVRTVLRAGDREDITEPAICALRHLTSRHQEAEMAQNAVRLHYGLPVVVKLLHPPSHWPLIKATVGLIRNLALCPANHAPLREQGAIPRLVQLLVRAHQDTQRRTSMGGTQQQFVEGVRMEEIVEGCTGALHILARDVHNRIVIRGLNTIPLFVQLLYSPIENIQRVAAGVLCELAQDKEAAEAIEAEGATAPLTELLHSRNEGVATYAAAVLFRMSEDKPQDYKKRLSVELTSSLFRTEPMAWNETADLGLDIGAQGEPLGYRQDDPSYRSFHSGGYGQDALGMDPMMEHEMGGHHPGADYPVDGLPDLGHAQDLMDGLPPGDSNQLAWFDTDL
# [2] = target: T2, beta-catenin/TCF4 engagement (Homo sapiens, UniProt P35222); assay: Nano-BRET target engagement assay (B-cat-Halo & TCF4-Luc in HEK293 cells); type: cell-based; conditions: read-out: NanoBRET Abs IC50
# T2 construct: expressed in transfected cells; host or cells: HEK293
# T2 sequence (P35222 1-781): T1 sequence (P35222 1-781)
IC50 [1] [nM],IC50 [2] [nM],Compound
11,4700,"CC(=O)N1CCC[C@]12CC=CCCCC1(CCCC=CCCCOC(=O)N3CC[C@@](C(=O)N[C@@H](Cc4ccccc4Cl)C(=O)N[C@@H](Cc4csc5ccccc45)C(=O)N[C@@H](C)C(N)=O)(C3)NC(=O)[C@H](CC(N)=O)NC(=O)[C@H](Cc3ccccc3)NC(=O)[C@H](C)NC(=O)[C@H](C)NC(=O)[C@H](Cc3cccc(C(=O)O)c3)NC(=O)[C@H](CC(=O)O)NC1=O)NC(=O)[C@H](CC(C)(C)C)NC(=O)[C@H](CC(=O)O)NC2=O (stereo partly drawn) [I-2031, Ac-PL3-Asp-Npg-B5-Asp-3COOHF-Ala-Ala-Phe-Asn-PyrS2-2C1F-BztA-Ala-NH2]"
16,20900,"CC(=O)N1CCC[C@]12CC=CCCCC1(CCCC=CCCCOC(=O)N3CC[C@@](C(=O)N[C@@H](Cc4ccccc4Cl)C(=O)N[C@@H](Cc4csc5ccccc45)C(=O)N[C@H](C(N)=O)C(C)C)(C3)NC(=O)[C@H](CC(N)=O)NC(=O)[C@H](Cc3ccccc3)NC(=O)[C@H](C)NC(=O)[C@H](C)NC(=O)[C@H](Cc3cccc(C(=O)O)c3)NC(=O)[C@H](CC(=O)O)NC1=O)NC(=O)[C@H](CC(C)(C)C)NC(=O)[C@H](CC(=O)O)NC2=O (stereo partly drawn) [I-2032, Ac-PL3-Asp-Npg-B5-Asp-3COOHF-Ala-Ala-Phe-Asn-PyrS2-2C1F-BztA-Val-NH2]"
30,9500,"CC(=O)N1CCC[C@]12CC=CCCCC1(CCCC=CCCCOC(=O)N3CC[C@@](C(=O)N[C@@H](Cc4ccccc4Cl)C(=O)N[C@@H](Cc4csc5ccccc45)C(=O)N[C@@H](Cc4ccccc4)C(N)=O)(C3)NC(=O)[C@H](CC(N)=O)NC(=O)[C@H](Cc3ccccc3)NC(=O)[C@H](C)NC(=O)[C@H](C)NC(=O)[C@H](Cc3cccc(C(=O)O)c3)NC(=O)[C@H](CC(=O)O)NC1=O)NC(=O)[C@H](CC(C)(C)C)NC(=O)[C@H](CC(=O)O)NC2=O (stereo partly drawn) [I-2033, Ac-PL3-Asp-Npg-B5-Asp-3COOHF-Ala-Ala-Phe-Asn-PyrS2-2C1F-BztA-Phe-NH2]"
16,14500,"CC(=O)N1CCC[C@]12CC=CCCCC1(CCCC=CCCCOC(=O)N3CC[C@@](C(=O)N[C@@H](Cc4ccccc4Cl)C(=O)N[C@@H](Cc4csc5ccccc45)C(=O)N[C@@H](CC(N)=O)C(N)=O)(C3)NC(=O)[C@H](C)NC(=O)[C@H](Cc3ccccc3)NC(=O)[C@H](C)NC(=O)[C@H](C)NC(=O)[C@H](Cc3cccc(C(=O)O)c3)NC(=O)[C@H](CC(=O)O)NC1=O)NC(=O)[C@H](CC(C)(C)C)NC(=O)[C@H](CC(=O)O)NC2=O (stereo partly drawn) [I-2035, Ac-PL3-Asp-Npg-B5-Asp-3COOHF-Ala-Ala-Phe-Ala-PyrS2-2C1F-BztA-Asn-NH2]"
19,12900,"CC(=O)N1CCC[C@]12CC=CCCCC1(CCCC=CCCCOC(=O)N3CC[C@@](C(=O)N[C@@H](Cc4ccccc4Cl)C(=O)N[C@@H](Cc4csc5ccccc45)C(=O)N[C@@H](CC(N)=O)C(N)=O)(C3)NC(=O)[C@H](C)NC(=O)[C@H](Cc3ccccc3)NC(=O)[C@H](C)NC(=O)[C@H](C)NC(=O)[C@H](Cc3cccc(C(=O)O)c3)NC(=O)[C@H](CC(=O)O)NC1=O)NC(=O)[C@H](CC(C)(C)C)NC(=O)[C@H](CC(=O)O)NC2=O (stereo partly drawn) [I-2036, Ac-PL3-Asp-Npg-B5-Asp-3COOHF-Ala-Ala-Phe-Ala-PyrS2-2C1F-BztA-Asn-NH2]"
17,5000,"CC(=O)N1CCC[C@]12CC=CCCCC1(CCCC=CCCCOC(=O)N3CC[C@@](C(=O)N[C@@H](Cc4ccccc4Cl)C(=O)N[C@@H](Cc4csc5ccccc45)C(=O)N[C@@H](CC(N)=O)C(N)=O)(C3)NC(=O)[C@H](Cc3ccccc3)NC(=O)[C@H](Cc3ccccc3)NC(=O)[C@H](C)NC(=O)[C@H](C)NC(=O)[C@H](Cc3cccc(C(=O)O)c3)NC(=O)[C@H](CC(=O)O)NC1=O)NC(=O)[C@H](CC(C)(C)C)NC(=O)[C@H](CC(=O)O)NC2=O (stereo partly drawn) [I-2037, Ac-PL3-Asp-Npg-B5-Asp-3COOHF-Ala-Ala-Phe-Phe-PyrS2-2C1F-BztA-Asn-NH2]"
11,11800,"CC(=O)N1CCC[C@]12CC=CCCCC1(CCCC=CCCCOC(=O)N3CC[C@@](C(=O)N[C@@H](Cc4ccccc4Cl)C(=O)N[C@@H](Cc4csc5ccccc45)C(=O)N[C@@H](CC(N)=O)C(N)=O)(C3)NC(=O)[C@H](CO)NC(=O)[C@H](Cc3ccccc3)NC(=O)[C@H](C)NC(=O)[C@H](C)NC(=O)[C@H](Cc3cccc(C(=O)O)c3)NC(=O)[C@H](CC(=O)O)NC1=O)NC(=O)[C@H](CC(C)(C)C)NC(=O)[C@H](CC(=O)O)NC2=O (stereo partly drawn) [I-2038, Ac-PL3-Asp-Npg-B5-Asp-3COOHF-Ala-Ala-Phe-Ser-PyrS2-2C1F-BztA-Asn-NH2]"
9,10500,"CC(=O)N1CCC[C@]12CC=CCCCC1(CCCC=CCCCOC(=O)N3CC[C@@](C(=O)N[C@@H](Cc4ccccc4Cl)C(=O)N[C@@H](Cc4csc5ccccc45)C(=O)N[C@@H](CC(N)=O)C(N)=O)(C3)NC(=O)[C@H](CO)NC(=O)[C@H](Cc3ccccc3)NC(=O)[C@H](C)NC(=O)[C@H](C)NC(=O)[C@H](Cc3cccc(C(=O)O)c3)NC(=O)[C@H](CC(=O)O)NC1=O)NC(=O)[C@H](CC(C)(C)C)NC(=O)[C@H](CC(=O)O)NC2=O (stereo partly drawn) [I-2039, Ac-PL3-Asp-Npg-B5-Asp-3COOHF-Ala-Ala-Phe-Ser-PyrS2-2C1F-BztA-Asn-NH2]"
9,10000,"CC(=O)N1CCC[C@]12CC=CCCCC1(CCCC=CCCCOC(=O)N3CC[C@@](C(=O)N[C@@H](Cc4ccsc4)C(=O)N[C@@H](Cc4csc5ccccc45)C(=O)N[C@@H](CC(N)=O)C(N)=O)(C3)NC(=O)[C@H](C)NC(=O)[C@H](Cc3ccccc3)NC(=O)[C@H](C)NC(=O)[C@H](C)NC(=O)[C@H](Cc3cccc(C(=O)O)c3)NC(=O)[C@H](CC(=O)O)NC1=O)NC(=O)[C@H](CC(C)(C)C)NC(=O)[C@H](CC(=O)O)NC2=O (stereo partly drawn) [I-2042, Ac-PL3-Asp-Npg-B5-Asp-3COOHF-Ala-Ala-Phe-Ala-PyrS2-3Thi-BztA-Asn-NH2]"
5,13500,"CC(=O)N1CCC[C@]12CC=CCCCC1(CCCC=CCCCOC(=O)N3CC[C@@](C(=O)N[C@@H](Cc4ccsc4)C(=O)N[C@@H](Cc4csc5ccccc45)C(=O)N[C@@H](CC(N)=O)C(N)=O)(C3)NC(=O)[C@H](CO)NC(=O)[C@H](Cc3ccccc3)NC(=O)[C@H](C)NC(=O)[C@H](C)NC(=O)[C@H](Cc3cccc(C(=O)O)c3)NC(=O)[C@H](CC(=O)O)NC1=O)NC(=O)[C@H](CC(C)(C)C)NC(=O)[C@H](CC(=O)O)NC2=O (stereo partly drawn) [I-2045, Ac-PL3-Asp-Npg-B5-Asp-3COOHF-Ala-Ala-Phe-Ser-PyrS2-3Thi-BztA-Asn-NH2]"
5,4500,"CC(=O)N1CCC[C@]12CC=CCCCC1(CCCC=CCCCOC(=O)N3CC[C@@](C(=O)N[C@@H](Cc4ccsc4)C(=O)N[C@@H](Cc4csc5ccccc45)C(=O)N[C@@H](C)C(N)=O)(C3)NC(=O)[C@H](CC(C)C)NC(=O)[C@H](Cc3ccccc3)NC(=O)[C@H](C)NC(=O)[C@H](CC(N)=O)NC(=O)[C@H](Cc3cccc(C(=O)O)c3)NC(=O)[C@H](CC(=O)O)NC1=O)NC(=O)[C@H](CC(C)(C)C)NC(=O)[C@H](CC(=O)O)NC2=O (stereo partly drawn) [I-2049, Ac-PL3-Asp-Npg-B5-Asp-3COOHF-Asn-Ala-Phe-Leu-PyrS2-3Thi-BztA-Ala-NH2]"
9,4900,"CC(=O)N1CCC[C@]12CC=CCCCC1(CCCC=CCCCOC(=O)N3CC[C@@](C(=O)N[C@@H](Cc4ccsc4)C(=O)N[C@@H](Cc4csc5ccccc45)C(=O)N[C@@H](C)C(N)=O)(C3)NC(=O)[C@H](CC(C)C)NC(=O)[C@H](Cc3ccccc3)NC(=O)[C@H](C)NC(=O)[C@H](CO)NC(=O)[C@H](Cc3cccc(C(=O)O)c3)NC(=O)[C@H](CC(=O)O)NC1=O)NC(=O)[C@H](CC(C)(C)C)NC(=O)[C@H](CC(=O)O)NC2=O (stereo partly drawn) [I-2050, Ac-PL3-Asp-Npg-B5-Asp-3COOHF-Ser-Ala-Phe-Leu-PyrS2-3Thi-BztA-Ala-NH2]"

Compound,IC50 [1] [nM],IC50 [2] [nM]
"CC(=O)N1CCC[C@]12CC=CCCCC1(CCCC=CCCCOC(=O)N3CC[C@@](C(=O)N[C@@H](Cc4ccsc4)C(=O)N[C@@H](Cc4csc5ccccc45)C(=O)N[C@@H](CC(N)=O)C(=O)N[C@@H](C)C(=O)N[C@@H](C)C(=O)N[C@@H](C)C(N)=O)(C3)NC(=O)[C@H](CC(C)C)NC(=O)[C@H](Cc3ccccc3)NC(=O)[C@H](C)NC(=O)[C@H](C)NC(=O)[C@H](Cc3cccc(C(=O)O)c3)NC(=O)[C@H](CC(=O)O)NC1=O)NC(=O)[C@H](CC(C)(C)C)NC(=O)[C@H](CC(=O)O)NC2=O (stereo partly drawn) [I-2046, Ac-PL3-Asp-Npg-B5-Asp-3COOHF-Ala-Ala-Phe-Leu-PyrS2-3Thi-BztA-Asn-Ala-Ala-Ala-NH2]",12,2900
